Laboratory results published in patent US6552027B2, “Quinazolines for treating brain tumor” (Parker Hughes Institute, priority 1998, dated 2003).
Where a name gives a salt, the structure may show the parent alone. Read-outs that look alike come from different tables or passages of the source. Values belong to the compound of their own block, whether it stands above or below them.

Legend:
[1] = tested on: U373 human glioblastoma cell line; assay: MTT cytotoxicity assay, U373 glioblastoma cells; settings: for IC50: Homo sapiens, U373 MG
Experimental: (§1) The cytotoxicity assay of various compounds against human brain tumor cell lines was performed using the MTT (3-[4,5-dimethylthiazol-2-yl]-2,5-diphenyl tetrazolium bromide) assay (Boehringer Mannheim Corp., Indianapolis, Ind.). Briefly, exponentially growing brain tumor cells were seeded into a 96-well plate at a density of 2.5×10^4 cells/well and incubated for 36 hours at 37° C. prior to drug exposure. […] Triplicate wells were used for each treatment.
Human glioblastoma cell line U373 was obtained from American. Type Culture Collection (Rockville, Md.) and maintained as a continuous cell line in Dulbecco's modified Eagles's medium supplemented with 10% fetal bovine serum and antibiotics. The B-lineage acute lymphoblastic leukemia cell line Nalm-6 was used as a negative control.
(§2) The cells were incubated with the various compounds for 24-36 hours at 37° C. in a humidified 5% CO2 atmosphere. To each well, 10 μl of MTT (0.5 mg/ml final concentration) was added and the plates were incubated at 37° C. for 4 hours to allow MTT to form formazan crystals by reacting with metabolically active cells. The formazan crystals were solubilized overnight at 37° C. in a solution containing 10% SDS in 0.01 M HCl. The absorbence of each well was measured in a microplate reader (Labsystems) at 540 nm and a reference wavelength of 690 nm. To translate the OD540 values into the number of live cells in each well, the OD540 values were compared to those on standard OD540—versus—cell number curves generated for each cell line. The percent survival was calculated using the formula: [formula]
(§3) The IC50 values were calculated by non linear regression analysis.

[2] = tested on: U373 cells; assay: Adhesion of glioblastoma cells to ECM protein-coated plates; format: cell-based, human; settings: for IC50: Homo sapiens, U373 MG
Experimental: In vitro adhesion assays were performed to (a) study the baseline adhesive properties of various glioblastoma cell lines and (b) evaluate the effects of quinazoline derivatives on the adhesive properties of glioblastoma cells. The plates for the adhesion assays were precoated with the extracellular matrix proteins laminin, fibronectin or type IV collagen (each at a final concentration of 1 μg/ml in PBS) overnight at 4° C. and dried. On the day of the experiment, the wells were rehydrated and blocked with 10% bovine serum albumin in PBS for 1 hour at room temperature and used for the adhesion assays, as described below.
DMSO (0.1%) was included as a vehicle control. After treatment, cells were detached from the flasks with 0.05% trypsin (Life Technologies) resuspended in DMEM, incubated at 37° C. for 2 hours to allow them to recover from the trypsinization stress and examined for their ability to adhere to plates precoated with ECM proteins.
In adhesion assays, cells were centrifuged, washed twice with serum-free DMEM, counted and resuspended in serum-free DMEM to a final concentration of 2.5×10^5 cells/ml. One hundred μl of the cell suspension containing 2.5×10^4 cells were added to each well and cells were allow d to adhere for 1 hour at 37° C. in a humidified 5% CO2 atmosphere. The adherent fraction was quantitated using MTT (3-[4,5-dimethylthiazol-2-yl]-2,5-diphenyltetrazolium bromide) assays. […] The adherent fractions of cells treated with quinazoline derivatives were compared to those of DMSO-treated control cells and the percent inhibition of adhesion was determined sing the formula: [formula]
Each treatment condition was evaluate d in duplicate in 3 independent experiments.

[3] = tested on: U373 glioblastoma cells; assay: Glioblastoma cell invasion through Matrigel matrix (Boyden chambers); format: cell-based; settings: Homo sapiens, U373 MG
Experimental: The in vitro invasiveness of glioblastoma cells was assayed using a previously published method which employs Matrigel-coated Costar 24-well transwell cell culture chambers (“Boyden chambers”) with 8.0-μm-pore polycarbonate filter inserts (Albini, A., Iwamoto, Y., Kleinman, H. K., Martin, G. R., Aaronson, S. A., Kozlowski, J. M., and McEwan, R. N., 1987, Cancer Res., 47:3239-3245). The chamber filters were coated with 50 μg/ml of Matrigel matrix, incubated overnight at room temperature under a laminar flow hood and stored at 4° C. Matrigel matrix is made up of several components of the extralcellular matrix (ECM), including collagens, laminin and proteo-glycans
On the day of the experiment, the coated inserts were rehydrated with 0.5 ml serum-free DMEM containing 0.1% bovine serum albumin for 1-2 hours. To study the effects of quinazoline derivatives on invasiveness of glioblastoma cells, exponentially growing cells were incubated overnight with WHI-P97, WHI-P131 and WHI-P154 at various concentrations ranging from 1 μM to 50 μM. The cells were trypsinized, washed twice with serum-free DMEM containing BSA, counted and resuspended at 1×10^5 cells/ml. 0.5 ml cell suspension containing 5×10^4 cells in a serum-free DMEM containing quinazoline compounds or vehicle was added to the Matrigel-coated and rehydrated filter inserts. Next, 750 μl of NIH fibroblast conditioned medium was placed as a chemoattractant in 24-well plates and the inserts were placed in wells and incubated at 37° C. for 48 hours. […] The invasive cells that migrated to the lower side of the filter were fixed, stained with Hema-3 solutions and counted under microscope. Five to 10 random fields per filter were counted to determine the mean (±SE) values for the invasive fraction. The invasive fractions of cells treated with quinazoline derivatives were compared to those of DMSO treated control cells and he percent inhibition of invasiveness was determined using the formula: [formula]
Each treatment condition was evaluated in duplicate in 3 independent experiments. IC50 values were calculated by non-linear regression analysis using Graphpad Prisin Software Version 2.0 (Graphpad Software Inc., San Diego, Calif.).

[4] = tested on: NALM-6 leukemia cells; assay: MTT cytotoxicity assay, EGF-R negative leukemia cells (negative control line); format: cell-based; settings: NALM-6; FIG. 5B
Experimental: Triplicate wells were used for each treatment.
Human glioblastoma cell line U373 was obtained from American.
The percent survival was calculated using the formula: [formula]

[5] = tested on: U87 human glioblastoma cell line; assay: MTT cytotoxicity assay, U87 glioblastoma cells; format: cell-based; settings: Homo sapiens, unconjugated compound, read-out: IC50 value
Experimental: as §1, §2, §3
Apoptosis was also evaluated using the nick-end-labeling assay, as described for Example 3.

[6] = tested on: U373 human glioblastoma cells; assay: SCID mouse xenograft model of human glioblastoma; settings: 1 mg/kg/day×10 days i.p.
Experimental: The right hind legs of the CB. 17 SCID mice were inoculated subcutaneously (s.c.) with 0.5×10^6 U373 human glioblastoma cells in 0.2 mL PBS. […] Daily treatments with PBS, unconjugated EGF (1 mg/kg/dose), and unconjugated WHI-P154 (1 mg/kg/dose) were used as controls. Mice were monitored daily for health status and tumor growth, and were sacrificed if they became moribund developed tumors which impeded their ability to attain food or water, at the end of the 3-month observation period. Tumors were measured using Vernier calipers twice weekly, and the tumor volumes were calculated according to the following formula (Friedman, S. H., mDolan, M. E., Pegg, A. E., Marcelli, S., Keir, S., Catino, J. J., Binger, D. D., Schold, S. C., Jr., 1995, Cancer Res., 55:2853-2857): [formula]
For histopathologic studies, tissues were fixed in 10% neutral buffered formalin, dehydrated, and embedded in paraffin by routine methods. Glass slides with affixed 6 micron tissue sections were prepared and stained with hematoxylin/eosin. Primary endpoints of interest were tumor growth and tumor-free survival outcome. Estimation of life table outcome and comparisons of outcome between groups were done, as previously reported (Waurzyniak, et al., 1997, Clinical Cancer Research 3:881-890; Anderson, et al., 1995, Cancer Res. 55:1321-1327; Uckun, et al., 1997, J. Clin. Oncol. 15:2214-2221).

[7] = U373, 3 independent experiments, 48 hours, read-out: mean IC50 value, invasion through Matrigel matrix
[8] = U373, 3 independent experiments, read-out: range of IC50 values, invasion through Matrigel matrix
[9] = read-out: IC50 value derived from the average values of three experiments, invasion
[10] = one bound for all three coatings, read-out: all IC50 values, adhesion to laminin-, fibronectin- and collagen-coated plates

SMILES: COc1cc2ncnc(Nc3cc4ccccc4cc3O)c2cc1OC [WHI-P292, 4-(2′-Hydroxy-naphthyl-3′)-amino-6,7-dimethoxyquinazoline]
IC50 [1]: 38.2 µM

SMILES: O=c1c(-c2ccc(O)cc2)coc2cc(O)cc(O)c12 [genistein, reference compound]
inhibition of glioblastoma cell adhesion (in words) ([2]; ECM-coated plates): did not affect glioblastoma cell adhesion and motility | IC50 ([1]; read-out: IC50 value): > 250 µM | cytotoxicity against brain tumor cells (in words) ([1]; U373, MTT, 0.1 to 250 μM, FIGS. 1A and 1B): also ineffective

melting point: 225 to 228 °C
SMILES: COc1cc2ncnc(Nc3ccc(C)c(Br)c3)c2cc1OC [WHI-P111, 4-(3′-Bromo-4′-methylphenyl)-amino-6,7-dimethoxyquinazoline]

SMILES: COc1cc2ncnc(Nc3ccc(O)c(Br)c3)c2cc1OC [WHI-P154, 4-(3′-Bromo-4′-hydroxylphenyl)-amino-6,7-dimethoxyquinazoline]
IC50 [3, 7]: 4.46 ± 0.8 µM | IC50 [3, 8]: 3.53 to 5.01 µM | IC50 [3, 9]: 5.2 µM | IC50 ([2]; 16 hours treatment, N=3, read-out: mean IC50 value, adhesion to collagen-coated plates): 42.7 ± 2.5 µM | IC50 ([2]; 16 hours treatment, N=3, read-out: mean IC50 value, adhesion to fibronectin-coated plates): 29.8 ± 3.1 µM | IC50 ([2]; 16 hours treatment, N=3, read-out: mean IC50 value, adhesion to laminin-coated plates): 36.1 ± 3.5 µM | cytotoxicity against EGF-R negative leukemia cells (in words) [4]: marked cytotoxicity | IC50 ([1]; read-out: composite survival curve IC50 value): 158 µM | IC50 ([1]; read-out: mean (±SE) IC50 value): 167 ± 26.9 µM | IC50 [5]: 179 ± 18.5 µM | time at which tumors reached a size of 50 mm^3 [6]: 36.0 ± 5.1 days | median tumor-free survival ([6]; N=5): 19 days

melting point: 277 to 279 °C
SMILES: COc1cc2ncnc(Nc3cc4ccccc4cc3O)c2cc1OC (as salt: salt) [WHI-P292, 4-(2′-Hydroxy-naphthyl-3′)-amino-6,7-dimethoxyquinazoline]

IC50 [3, 7]: 10.6 ± 1.8 µM | IC50 [3, 8]: 9.57 to 11.6 µM | IC50 [3, 9]: 9.58 µM
SMILES: COc1cc2ncnc(Nc3cc(Br)c(O)c(Br)c3)c2cc1OC [WHI-P97, 4-(3′, 5′-Dibromo-4′-hydroxylphenyl)-amino-6,7-dimethoxyquinazoline]

IC50 [2, 10]: > 50 µM
SMILES: COc1cc2ncnc(Nc3cccc(Br)c3)c2cc1OC [WHI-P79, 4-(3′-Bromophenyl)-amino-6,7-dimethoxyquinazoline]

IC50 [3, 7]: 7.07 ± 1.8 µM | IC50 [3, 8]: 5.08 to 8.59 µM | IC50 [3, 9]: 7.95 µM | IC50 [2, 10]: > 50 µM
SMILES: COc1cc2ncnc(Nc3ccc(O)cc3)c2cc1OC [WHI-P131, 4-(4′-Hydroxylphenyl)-amino-6,7-dimethoxyquinazoline]
